The values that follow are results of earlier work, collected in US20140309168A1, “MODIFIED PEPTIDES AND PROTEINS” (AmideBio, LLC, priority 2010, published 2014).

For the series the following is noted: background statement on the marketed peptide.

As for enfuvirtide, the “in vivo half life” value is on record as “about 3.8 hours”.
